These results are taken from US20250241901A1, “ACTIVATION OF MNRR1 / CHCHD2 AS A THERAPEUTIC TARGET FOR MITOCHONDRIA ASSOCIATED DISORDERS” (Wayne State University, priority 2024, published 2025).

Experiment [1] deals with intra-amniotic LPS-induced preterm labor and birth. The experiment in a line: Murine model of intra-amniotic LPS-induced preterm labor and birth. Type of experiment: in vivo, mouse. Here is the method:
FIGS. 2A-2F. Nitazoxanide prevents preterm delivery and improves neonatal mortality in vivo. (FIG. 2A) Schematic illustration depicting the administration of nitazoxanide (marketed under the commercial name Alinia) and LPS in the murine model of preterm birth. (FIG. 2B) Gestational length of mice was obtained using video-monitoring until delivery (n=6-8 animals). (FIG. 2C) Neonatal mortality was determined by calculating the number of dead pups over total litter size (n=6-8 animals). […] No pups from LPS-injected dams survived beyond week 0 of birth. (FIG. 2E) MNRR1 transcript levels were measured in mouse decidual tissue (17.5 dpc). Actin was used as a housekeeping gene to normalize expression (n=4 animals for all except PBS+N, where n=3). (FIG. 2F) Equal amounts of whole placental lysates were separated on an SDS-PAGE gel and probed for MNRR1 levels. Actin was used as a loading control. Gel is representative of data obtained from 2 animals. Keyfor FIGS. 2B, 2C, and 2E: PBS, phosphate buffered saline injection; LPS, lipopolysaccharide injection; PBS+N, PBS injection with oral gavage of nitazoxanide; LPS+N, LPS injection with oral gavage of nitazoxanide. Significance: *, p<0.05; **, p<0.01.
Animal model of intra-amniotic LPS-induced preterm labor and birth: Nitazoxanide (Alinia®; ROMARK, Tampa, FL, USA) was dissolved in sterile injectable water. The nitazoxanide volume was mouse weight dependent (100 μL of nitazoxanide solution at 200 mg/kg was administered for every mouse weight of 10 g). […] Dams were anesthetized on 16.5 dpc by inhalation of 2-3% (Fluriso™ (Isoflurane, USP), Vetone Boise, ID, USA) and 1-2 L/min of oxygen in an induction chamber. Anesthesia was maintained with a mixture of 1.5-2% isoflurane and 1.5-2 L/min of oxygen. Dams were positioned on a heating pad and stabilized with adhesive tape. Fur removal from the abdomen and thorax was performed by applying Nair cream (Church & Dwight Co., Inc., Ewing, NJ, USA) to those areas. Body temperature was detected with a rectal probe (VisualSonics Inc., Toronto, Ontario, Canada) and maintained in the range of 37±1° C. Respiratory and heart rates were monitored by electrodes embedded in the heating pad. An ultrasound probe was fixed and mobilized with a mechanical holder, and the transducer was slowly moved toward the abdomen. […] Following injection, dams were monitored by using a video camera with infrared light (Sony) until delivery. Video monitoring allowed for determination of gestational length, which was calculated from the presence of the vaginal plug (0.5 dpc) until the observation of the first pup in the cage bedding. […] The rates of neonatal mortality at birth were calculated as the number of pups found dead among the total litter size. […]

The test system of another experiment is MNRR1. Description: MNRR1 immunoblot in several other human cell lines. Type of experiment: cell-based. To be noted: 10 μM, 24 h. As to the method: FIGS. 5A-5E: FIG. 5A: Venn diagram showing activators identified in HEK293 and MDA-MB-468 cells. FIG. 5B: Equal amounts of MELAS cells treated with Vehicle (DMSO) or various MNRR1 activating compounds (10 μM) for 24 h were separated on an SDS-PAGE gel and probed for MNRR1 levels. Actin was probed as a loading control and numbers below represent an average and standard deviation (SD) of two biological replicates. FIGS. 5C-5E: Equal amounts of cell lysates from various cell lines treated with vehicle (DMSO) or tizoxanide (10 μM) for 24 h were separated on an SDS-PAGE gel and probed for MNRR1 plus loading controls GAPDH or tubulin.
Immunoblotting: Immunoblotting was performed as described previously. Cell lysates for immunoblotting were prepared using RIPA buffer (Abcam, Waltham, MA) and included a protease and phosphatase inhibitor cocktail (Sigma, St. Louis, MO). Total protein extracts were obtained by centrifugation at 21,000×g for 30 min at 4° C. The clear supernatants were transferred to new tubes and quantified using the Bradford reagent with BSA as standard (BioRad, Hercules. CA). […] For detection after immunoblotting, the SuperSignal™ West Pico PLUS substrate (ThermoFisher, Waltham, MA) was used to generate chemiluminescence signal, which was detected with X-Ray film (RadTech, Vassar, MI).
(In general: Immunoblotting shows a protein as a band on a membrane.)

The mark [2] stands for this setting: 200 mg/kg oral gavage, intra-amniotic LPS 16.5 dpc.

Take `CC(=O)Oc1ccccc1C(=O)Nc1ncc([N+](=O)[O-])s1` [nitazoxanide, Nitazoxanide]: the “neonatal mortality at birth” value in experiment [1] (200 mg/kg oral gavage, LPS-injected dams, compared to controls) is on record as “significantly reduced”. Moreover, in experiment [1] (setting [2]), the “LPS-induced preterm birth (delivery <18.5 dpc)” value is listed as “preventing LPS-induced preterm birth (delivery <18.5 days post coitum (dpc)) in all pregnant dams” and the gestational age result is reported as “extended”. The “neonates surviving up to 3 weeks” value in experiment [1] (neonates born to LPS-injected dams treated with nitazoxanide) was “almost one-half”.

Take `O=C(Nc1ncc([N+](=O)[O-])s1)c1ccccc1O` [tizoxanide, Tizoxanide]: the MNRR1 level result with MNRR1 was “increase of MNRR1”.
